15 compounds from paper PMC10946806, “Development of Bifunctional, Raman Active Diyne‐Girder Stapled α‐Helical Peptides” (Chemistry (Weinheim an Der Bergstrasse, Germany), 2023) can be followed below.

A short description of series [1]: on-resin Glaser oxidative coupling of two terminal alkynes (i,i+7 side chains) to 1,3-diyne; CuCl 5 eq, 4,4'-bis(hydroxymethyl)-2,2'-bipyridine 7.5 eq, DIPEA 20 eq, microwave. The note with it: the molecule shown is the open-chain precursor, DMF, 10.0 mM, 60.0 °C, 3.0 h.
Series [2] is described as follows: Circular dichroism (CD) spectroscopy, % helicity. The format is physicochemical. To be noted: for percentage helicity at 222 nm from mean residue ellipticity: peptide 50 μM in PBS pH 7.4, room temperature, MRE at 222 nm converted by Equation S2. Here is the method: Circular dichroism (CD): CD spectra were obtained using a JASCO J-810 CD spectrometer. […] Percentage helicities can be calculated for α-helical peptides. […] […] Equation S1. MRE calculation. […] To 100 μL of peptide solution was added 100 11
(CD spectra are sensitive to the conformation of chiral molecules.)

The compound `C#CCCCCC[C@](C)(NC(=O)[C@H](CCCCNC(=O)OC(C)(C)C)NC(=O)[C@H](C)NC(=O)CCCCCNC(=O)OCC1c2ccccc2-c2ccccc21)C(=O)N[C@@H](Cc1ccc(OC(C)(C)C)cc1)C(=O)N[C@@H](C)C(=O)N[C@@H](CCCNC(=N)NS(=O)(=O)c1c(C)c(C)c2c(c1C)CC(C)(C)O2)C(=O)N[C@@H](CCCC)C(=O)NCC(=O)N[C@@H](CCCNC(=N)NS(=O)(=O)c1c(C)c(C)c2c(c1C)CC(C)(C)O2)C(=O)N[C@@](C)(CCCCCC#C)C(=O)N[C@@H](CC(C)C)C(=O)N[C@@H](CCCCNC(=O)OC(C)(C)C)C(=O)N[C@@H](CCC(=O)OC(C)(C)C)C(=O)N[C@H](C(=O)N[C@@H](C)C(=O)N[C@@H](CCCCNC(=O)OC(C)(C)C)C(N)=O)[C@@H](C)CC` came in with a ring closure, conversion by HPLC in series [1] (36-membered ring) of 100%.
On to `C#CCCCCCC[C@@](C)(NC(=O)[C@H](CCCCNC(=O)OC(C)(C)C)NC(=O)[C@H](C)NC(=O)CCCCCNC(=O)OCC1c2ccccc2-c2ccccc21)C(=O)N[C@@H](Cc1ccc(OC(C)(C)C)cc1)C(=O)N[C@@H](C)C(=O)N[C@@H](CCCNC(=N)NS(=O)(=O)c1c(C)c(C)c2c(c1C)CC(C)(C)O2)C(=O)N[C@@H](CCCC)C(=O)NCC(=O)N[C@@H](CCCNC(=N)NS(=O)(=O)c1c(C)c(C)c2c(c1C)CC(C)(C)O2)C(=O)N[C@](C)(CCCCCCC#C)C(=O)N[C@@H](CC(C)C)C(=O)N[C@@H](CCCCNC(=O)OC(C)(C)C)C(=O)N[C@@H](CCC(=O)OC(C)(C)C)C(=O)N[C@H](C(=O)N[C@@H](C)C(=O)N[C@@H](CCCCNC(=O)OC(C)(C)C)C(N)=O)[C@@H](C)CC`, for which the ring closure, conversion by HPLC in series [1] (38-membered ring) was 93%.
`C#CCCCCC[C@@](C)(NC(=O)[C@H](CCCCNC(=O)OC(C)(C)C)NC(=O)[C@H](C)NC(=O)CCCCCNC(=O)OCC1c2ccccc2-c2ccccc21)C(=O)N[C@@H](Cc1ccc(OC(C)(C)C)cc1)C(=O)N[C@@H](C)C(=O)N[C@@H](CCCNC(=N)NS(=O)(=O)c1c(C)c(C)c2c(c1C)CC(C)(C)O2)C(=O)N[C@@H](CCCC)C(=O)NCC(=O)N[C@@H](CCCNC(=N)NS(=O)(=O)c1c(C)c(C)c2c(c1C)CC(C)(C)O2)C(=O)N[C@@](C)(CCCCCC#C)C(=O)N[C@@H](CC(C)C)C(=O)N[C@@H](CCCCNC(=O)OC(C)(C)C)C(=O)N[C@@H](CCC(=O)OC(C)(C)C)C(=O)N[C@H](C(=O)N[C@@H](C)C(=O)N[C@@H](CCCCNC(=O)OC(C)(C)C)C(N)=O)[C@@H](C)CC` returned a ring closure, conversion by HPLC in series [1] (36-membered ring) of 94%.
Turning to “FTU-Ahx-AKS8YAR(Nle)GRS8LKEIAK-NH2 (sidechain bridge or staple) [compound 33, diyne-girder stapled T-STAR peptide, C16 bridge, SS]”, the “percentage helicity (in words)” value in series [2] (peptide 50 μM in PBS pH 7.4, 222 nm) is “high”.
`C#CCCCCC[C@H](NC(=O)[C@H](CCCNC(=N)NS(=O)(=O)c1c(C)c(C)c2c(c1C)CC(C)(C)O2)NC(=O)CNC(=O)[C@H](CCCC)NC(=O)[C@H](CCCNC(=N)NS(=O)(=O)c1c(C)c(C)c2c(c1C)CC(C)(C)O2)NC(=O)[C@H](C)NC(=O)[C@H](Cc1ccc(OC(C)(C)C)cc1)NC(=O)[C@H](CCCCCC#C)NC(=O)[C@H](CCCCNC(=O)OC(C)(C)C)NC(=O)[C@H](C)NC(=O)CCCCCNC(=O)OCC1c2ccccc2-c2ccccc21)C(=O)N[C@@H](CC(C)C)C(=O)N[C@@H](CCCCNC(=O)OC(C)(C)C)C(=O)N[C@@H](CCC(=O)OC(C)(C)C)C(=O)N[C@H](C(=O)N[C@@H](C)C(=O)N[C@@H](CCCCNC(=O)OC(C)(C)C)C(N)=O)[C@@H](C)CC` returned a ring closure, conversion by HPLC in series [1] (36-membered ring) of 38%.
As for `C#CCCCCC[C@@](C)(NC(=O)[C@H](CCCNC(=N)NS(=O)(=O)c1c(C)c(C)c2c(c1C)CC(C)(C)O2)NC(=O)CNC(=O)[C@H](CCCC)NC(=O)[C@H](CCCNC(=N)NS(=O)(=O)c1c(C)c(C)c2c(c1C)CC(C)(C)O2)NC(=O)[C@H](C)NC(=O)[C@H](Cc1ccc(OC(C)(C)C)cc1)NC(=O)[C@](C)(CCCCCC#C)NC(=O)[C@H](CCCCNC(=O)OC(C)(C)C)NC(=O)[C@H](C)NC(=O)CCCCCNC(=O)OCC1c2ccccc2-c2ccccc21)C(=O)N[C@@H](CC(C)C)C(=O)N[C@@H](CCCCNC(=O)OC(C)(C)C)C(=O)N[C@@H](CCC(=O)OC(C)(C)C)C(=O)N[C@H](C(=O)N[C@@H](C)C(=O)N[C@@H](CCCCNC(=O)OC(C)(C)C)C(N)=O)[C@@H](C)CC`, the ring closure, conversion by HPLC in series [1] (36-membered ring) stood at 52%.
With `C#CCCC[C@](C)(NC(=O)[C@H](CCCCNC(=O)OC(C)(C)C)NC(=O)[C@H](C)NC(=O)CCCCCNC(=O)OCC1c2ccccc2-c2ccccc21)C(=O)N[C@@H](Cc1ccc(OC(C)(C)C)cc1)C(=O)N[C@@H](C)C(=O)N[C@@H](CCCNC(=N)NS(=O)(=O)c1c(C)c(C)c2c(c1C)CC(C)(C)O2)C(=O)N[C@@H](CCCC)C(=O)NCC(=O)N[C@@H](CCCNC(=N)NS(=O)(=O)c1c(C)c(C)c2c(c1C)CC(C)(C)O2)C(=O)N[C@@](C)(CCCC#C)C(=O)N[C@@H](CC(C)C)C(=O)N[C@@H](CCCCNC(=O)OC(C)(C)C)C(=O)N[C@@H](CCC(=O)OC(C)(C)C)C(=O)N[C@H](C(=O)N[C@@H](C)C(=O)N[C@@H](CCCCNC(=O)OC(C)(C)C)C(N)=O)[C@@H](C)CC`, the ring closure, conversion by HPLC in series [1] (32-membered ring) was 52%.
For the compound “FTU-Ahx-AKS7YAR(Nle)GRR7LKEIAK-NH2 (sidechain bridge or staple) [compound 32, diyne-girder stapled T-STAR peptide, C14 bridge, SR]”, in series [2], the “percentage helicity at 222 nm from mean residue ellipticity” value was found to be 54%.
Still for that read-out and setting: the figure for “FTU-Ahx-AKR8YAR(Nle)GRR8LKEIAK-NH2 (sidechain bridge or staple) [compound 34, diyne-girder stapled T-STAR peptide, C16 bridge, RR]” is 33%.
For `C#CCCCCCC[C@@](C)(NC(=O)[C@H](CCCCNC(=O)OC(C)(C)C)NC(=O)[C@H](C)NC(=O)CCCCCNC(=O)OCC1c2ccccc2-c2ccccc21)C(=O)N[C@@H](Cc1ccc(OC(C)(C)C)cc1)C(=O)N[C@@H](C)C(=O)N[C@@H](CCCNC(=N)NS(=O)(=O)c1c(C)c(C)c2c(c1C)CC(C)(C)O2)C(=O)N[C@@H](CCCC)C(=O)NCC(=O)N[C@@H](CCCNC(=N)NS(=O)(=O)c1c(C)c(C)c2c(c1C)CC(C)(C)O2)C(=O)N[C@@](C)(CCCCCCC#C)C(=O)N[C@@H](CC(C)C)C(=O)N[C@@H](CCCCNC(=O)OC(C)(C)C)C(=O)N[C@@H](CCC(=O)OC(C)(C)C)C(=O)N[C@H](C(=O)N[C@@H](C)C(=O)N[C@@H](CCCCNC(=O)OC(C)(C)C)C(N)=O)[C@@H](C)CC`, the ring closure, conversion by HPLC in series [1] (38-membered ring) was 100%.
`C#CCCCC[C@](C)(NC(=O)[C@H](CCCCNC(=O)OC(C)(C)C)NC(=O)[C@H](C)NC(=O)CCCCCNC(=O)OCC1c2ccccc2-c2ccccc21)C(=O)N[C@@H](Cc1ccc(OC(C)(C)C)cc1)C(=O)N[C@@H](C)C(=O)N[C@@H](CCCNC(=N)NS(=O)(=O)c1c(C)c(C)c2c(c1C)CC(C)(C)O2)C(=O)N[C@@H](CCCC)C(=O)NCC(=O)N[C@@H](CCCNC(=N)NS(=O)(=O)c1c(C)c(C)c2c(c1C)CC(C)(C)O2)C(=O)N[C@@](C)(CCCCC#C)C(=O)N[C@@H](CC(C)C)C(=O)N[C@@H](CCCCNC(=O)OC(C)(C)C)C(=O)N[C@@H](CCC(=O)OC(C)(C)C)C(=O)N[C@H](C(=O)N[C@@H](C)C(=O)N[C@@H](CCCCNC(=O)OC(C)(C)C)C(N)=O)[C@@H](C)CC` returned a ring closure, conversion by HPLC in series [1] (34-membered ring) of 65%.
For the compound “FTU-Ahx-AKR7YAR(Nle)GRR7LKEIAK-NH2 (sidechain bridge or staple) [compound 30, diyne-girder stapled T-STAR peptide, C14 bridge, RR]”, the “percentage helicity at 222 nm from mean residue ellipticity” value in series [2] was found to be 40%.
As for `C#CCCCCCC[C@](C)(NC(=O)[C@H](CCCCNC(=O)OC(C)(C)C)NC(=O)[C@H](C)NC(=O)CCCCCNC(=O)OCC1c2ccccc2-c2ccccc21)C(=O)N[C@@H](Cc1ccc(OC(C)(C)C)cc1)C(=O)N[C@@H](C)C(=O)N[C@@H](CCCNC(=N)NS(=O)(=O)c1c(C)c(C)c2c(c1C)CC(C)(C)O2)C(=O)N[C@@H](CCCC)C(=O)NCC(=O)N[C@@H](CCCNC(=N)NS(=O)(=O)c1c(C)c(C)c2c(c1C)CC(C)(C)O2)C(=O)N[C@@](C)(CCCCCCC#C)C(=O)N[C@@H](CC(C)C)C(=O)N[C@@H](CCCCNC(=O)OC(C)(C)C)C(=O)N[C@@H](CCC(=O)OC(C)(C)C)C(=O)N[C@H](C(=O)N[C@@H](C)C(=O)N[C@@H](CCCCNC(=O)OC(C)(C)C)C(N)=O)[C@@H](C)CC`, the ring closure, conversion by HPLC in series [1] (38-membered ring) was 100%.
In turn, `C#CCCCCC[C@@](C)(NC(=O)[C@H](CCCCNC(=O)OC(C)(C)C)NC(=O)[C@H](C)NC(=O)CCCCCNC(=O)OCC1c2ccccc2-c2ccccc21)C(=O)N[C@@H](Cc1ccc(OC(C)(C)C)cc1)C(=O)N[C@@H](C)C(=O)N[C@@H](CCCNC(=N)NS(=O)(=O)c1c(C)c(C)c2c(c1C)CC(C)(C)O2)C(=O)N[C@@H](CCCC)C(=O)NCC(=O)N[C@@H](CCCNC(=N)NS(=O)(=O)c1c(C)c(C)c2c(c1C)CC(C)(C)O2)C(=O)N[C@](C)(CCCCCC#C)C(=O)N[C@@H](CC(C)C)C(=O)N[C@@H](CCCCNC(=O)OC(C)(C)C)C(=O)N[C@@H](CCC(=O)OC(C)(C)C)C(=O)N[C@H](C(=O)N[C@@H](C)C(=O)N[C@@H](CCCCNC(=O)OC(C)(C)C)C(N)=O)[C@@H](C)CC` gave a ring closure, conversion by HPLC in series [1] (36-membered ring) of 68%.
Consider `C#CCCCCCC[C@@](C)(NC(=O)[C@H](CCCNC(=N)NS(=O)(=O)c1c(C)c(C)c2c(c1C)CC(C)(C)O2)NC(=O)CNC(=O)[C@H](CCCC)NC(=O)[C@H](CCCNC(=N)NS(=O)(=O)c1c(C)c(C)c2c(c1C)CC(C)(C)O2)NC(=O)[C@H](C)NC(=O)[C@H](Cc1ccc(OC(C)(C)C)cc1)NC(=O)[C@](C)(CCCCCCC#C)NC(=O)[C@H](CCCCNC(=O)OC(C)(C)C)NC(=O)[C@H](C)NC(=O)CCCCCNC(=O)OCC1c2ccccc2-c2ccccc21)C(=O)N[C@@H](CC(C)C)C(=O)N[C@@H](CCCCNC(=O)OC(C)(C)C)C(=O)N[C@@H](CCC(=O)OC(C)(C)C)C(=O)N[C@H](C(=O)N[C@@H](C)C(=O)N[C@@H](CCCCNC(=O)OC(C)(C)C)C(N)=O)[C@@H](C)CC`, for which the ring closure, conversion by HPLC in series [1] (38-membered ring) came out at 68%.
